Measurements taken from patent publication US10729738B2, “Hindered disulfide drug conjugates” (priority 2015, dated 2020).
Where a SMILES comes first, the peptide text is derived from it. [ ]: non-standard residue; d: D form. The star is where a group is joined. X6 = CC(C)(COC(=O)*)SSc1nc2c([N+](=O)[O-])cccc2[nH]1; Dolaproine = CO[C@@H]([C@@H]1CCCN1)[C@@H](C)C(=O)O; X11 = CC(C)(COC(=O)*)SSc1nc2ccc(C(=O)O)cc2[nH]1; X3 = CC(C)(COC(=O)*)SSc1ccc([N+](=O)[O-])cn1; Dil = CC[C@H](C)[C@H](NC)[C@@H](CC(=O)O)OC; X4 = CC(C)(COC(=O)*)SSc1nc2ncnc(N)c2[nH]1; X10 = CC(C)(COC(=O)*)SSc1nc2ncncc2[nH]1; X5 = CC(C)(COC(=O)*)SSc1nc2ncccc2[nH]1; X7 = CC(C)(COC(=O)*)SSc1nc2ccccc2[nH]1; X8 = CC(C)(COC(=O)*)SSc1nc2nccnc2[nH]1; X2 = C[C@@H](N*)[C@@H](O)c1ccccc1; X9 = CC(C)(COC(=O)*)SSc1nnn[nH]1; X1 = Cn1nnnc1SSC(C)(C)COC(=O)*; NMeV = CN[C@H](C(=O)O)C(C)C

Assays:
[1] = target: human serum albumin Cys-34 (Homo sapiens, UniProt P02768); experiment: Conjugation of activated disulfide-MMAE molecules to human serum albumin (Conjugate Ratio, LC/MS); conditions: disulfide MMAE compound at 10 molar equivalents relative to HSA, 75 mM Tris pH 8.5, ~16 hours at room temperature
Sequence of human serum albumin Cys-34 (P02768 25-609): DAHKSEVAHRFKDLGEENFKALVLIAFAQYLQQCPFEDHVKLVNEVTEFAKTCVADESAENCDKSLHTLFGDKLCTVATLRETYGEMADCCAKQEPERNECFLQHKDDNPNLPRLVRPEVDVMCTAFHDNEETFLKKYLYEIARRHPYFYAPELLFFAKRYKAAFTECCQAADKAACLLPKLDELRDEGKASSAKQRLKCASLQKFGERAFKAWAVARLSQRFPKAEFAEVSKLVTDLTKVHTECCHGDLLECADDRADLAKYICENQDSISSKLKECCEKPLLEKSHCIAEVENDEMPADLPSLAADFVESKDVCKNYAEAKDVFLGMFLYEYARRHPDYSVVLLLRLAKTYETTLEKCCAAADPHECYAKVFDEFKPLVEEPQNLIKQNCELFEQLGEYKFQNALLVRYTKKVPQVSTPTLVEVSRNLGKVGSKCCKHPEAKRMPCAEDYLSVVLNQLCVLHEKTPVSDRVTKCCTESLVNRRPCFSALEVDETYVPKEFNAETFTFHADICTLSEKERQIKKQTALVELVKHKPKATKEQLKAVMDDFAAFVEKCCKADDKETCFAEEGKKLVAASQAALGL
Method: In a first evaluation, MMAE was conjugated to human serum albumin (HSA). […] This Cys residue is blocked as a mixed disulfide with Cys or glutathione, preventing complete conjugation of other molecules to this residue. […] Conjugate reactions were analyzed by LC/MS. The extent of the expected MMAE-HSA conjugate formed during the reaction is represented by the “Conjugate Ratio”, measured by dividing the abundance of the MS peak for the MMAE-HSA conjugate by the sum total abundance of all peaks observed. The ideal value for the Conjugate Ratio is 1.0. The results are reported in table 31 below wherein the wavy line for the leaving group represents the point of attachment to the disulfide bond, and “HSA CR” refers to human serum albumin conjugate ratio.

[2] = target: T1, penetratin (AntP) peptide (Drosophila melanogaster, UniProt P02833); experiment: Conjugation of activated disulfide-MMAE molecules to penetratin (AntP) peptide (% Product); conditions: peptide 25 uM, disulfide MMAE 5 equivalents, 75 mM Tris pH 8.5 and 10% DMF, ~16 hours at room temperature, UV peak area
T1 construct: C-terminal amide (CONH2); made in house; host or cells: chemical synthesis (Fmoc solid-phase peptide synthesis)
Method: In a second evaluation, MMAE was conjugated to penetratin (AntP) peptide. The AntP peptide, with sequence H2N-[…]-CONH2 (SEQ ID NO:1) bearing a free Cys thiol at the C-terminus, was synthesized via standard Fmoc solid-phase peptide synthesis methods. This peptide was conjugated at a concentration of 25 uM to disulfide MMAE molecules with varying leaving groups (5 equivalents) in a buffered solution composed of 75 mM Tris, pH 8.5 and 10% DMF for ˜16 hours at room temperature. Extent of the reaction was measured by dividing the integrated area for the UV peak of the MMAE-AntP conjugate by the sum of all peaks (“% Product”). The ideal value for % Product is 100%. The results are reported in table 31 below wherein the wavy line for the leaving group represent the point of attachment to the disulfide bond, and “AntP % P” refers to penetratin (AntP) peptide % product.

[3] = In vitro disulfide cleavage and immolation by incubation with cysteine or glutathione (LC/MS); assay type: physicochemical; conditions: for Percentage of all products: pH 7.0, 37° C.
Method: In a first phase of the experiment, disulfide cleavage and immolation by incubation with cysteine and glutathione—with the thiol concentrations mimic those in plasma and cancer cells—was investigated using unconjugated small molecule model systems with para-nitro-pyridyl disulfide-containing linker drug analogs 1, 2 and 11 below. In particular, cleavage and immolation was evaluated in vitro by incubation at […] with cysteine ([…] or 200 μM) or glutathione (GSH, 4 mM) in 100 mM Tris buffer pH 7.0 containing 5% methanol at 37° C. Aliquots were taken at specified time points and the samples were analyzed by LC/MS on Sciex TripleTOF 5600 on a Hypersil Gold C18 column (100×2.1, […], Thermo Scientific). The column was eluted by a gradient of buffer A (0.1% formic acid in 10 mM ammonium acetate) to buffer B (0.1% formic acid in 10 mM ammonium acetate in 90% acetonitrile), 5% B 0-0.5 min, 5-25% B 0.5-8 min, 25-75% B 8-13 min, and 75-95% B 13-13.5 min, 95% B 13.5-14.5 min, 95-5% B 14.5-15 min at 0.4 mL/min. Under these conditions, para-nitropyridyl thiol was eluted at 5.3 min. All products (compounds 1, 2, 11, 3a, 3b, 4a, 4b, 12a, 12 b, 6, 7, 13 and 8) were separated and characterized by LC/MS/MS in a positive ESI ion mode. All analytes had the protonated molecular MH^+ as the major species with little source fragmentation. Full scan accurate mass peak areas were used to estimate relative abundance of each component and the disappearance of 1, 2, and 11 estimated relative full scan peak areas was consistent with that estimated based on the relative abundance compared to time 0 by MS or UV. The results are reported in Table 15 below and the analytical results are presented in Table 16 below where “Cmpd” refers to compound, “RT” refers to retention time in minutes, and “Calc. Mass” refers to calculated mass. The relative abundance of disulfide cleavage and immolation products over time were evaluated and are disclosed in FIGS. 12A to 12C, 13A to 13C, 14A to 14C and 15A to 15C where the products were monitored by LC/MS from incubations of linker drugs 1, 2, and 11 at pH 7.0 and 37° C. in the presence of: 0.2 mM cysteine (FIGS. 12A, 12B and 12C); 0.03 mM cysteine (FIGS. 13A, 13B and 13C); 4 mM glutathione (FIGS. 14A, 14B and 14C); and 0.03 mM glutathione (FIGS. 15A, 15B and 15C). In FIGS. 12A to 12C, 13A to 13C, 14A to 14C and 15A to 15C, compound reference numbers 1, 2, 3a, 3b, 4a, 4b, 6, 7, 8, 11, 12a, 12b and 13 correspond to the structures below.

CC[C@H](C)[C@@H]([C@@H](CC(=O)N1CCC[C@H]1[C@H](OC)[C@@H](C)C(=O)N[C@H](C)[C@@H](O)c1ccccc1)OC)N(C)C(=O)[C@@H](NC(=O)[C@H](C(C)C)N(C)C(=O)OCC(C)(C)SSc1nnnn1C)C(C)C (X1-[NMeV]V[Dil][Dolaproine]-X2)
HAS CR (HSA Conjugation Ratio) [1]: 0.86
AntP % P (penetratin (AntP) peptide % product) [2]: 32%

CC[C@H](C)[C@@H]([C@@H](CC(=O)N1CCC[C@H]1[C@H](OC)[C@@H](C)C(=O)N[C@H](C)[C@@H](O)c1ccccc1)OC)N(C)C(=O)[C@@H](NC(=O)[C@H](C(C)C)N(C)C(=O)OCC(C)(C)SSc1ccc([N+](=O)[O-])cn1)C(C)C (X3-[NMeV]V[Dil][Dolaproine]-X2)
HAS CR (HSA Conjugation Ratio) [1]: 0.11
AntP % P (penetratin (AntP) peptide % product) [2]: 14%

CC[C@H](C)[C@@H]([C@@H](CC(=O)N1CCC[C@H]1[C@H](OC)[C@@H](C)C(=O)N[C@H](C)[C@@H](O)c1ccccc1)OC)N(C)C(=O)[C@@H](NC(=O)[C@H](C(C)C)N(C)C(=O)OCC(C)(C)SSc1nc2ncnc(N)c2[nH]1)C(C)C (X4-[NMeV]V[Dil][Dolaproine]-X2)
HAS CR (HSA Conjugation Ratio) [1]: 0.23
AntP % P (penetratin (AntP) peptide % product) [2]: 21%

CC[C@H](C)[C@@H]([C@@H](CC(=O)N1CCC[C@H]1[C@H](OC)[C@@H](C)C(=O)N[C@H](C)[C@@H](O)c1ccccc1)OC)N(C)C(=O)[C@@H](NC(=O)[C@H](C(C)C)N(C)C(=O)OCC(C)(C)SSc1nc2ncccc2[nH]1)C(C)C (X5-[NMeV]V[Dil][Dolaproine]-X2)
HAS CR (HSA Conjugation Ratio) [1]: 0.84
AntP % P (penetratin (AntP) peptide % product) [2]: 12%

CC[C@H](C)[C@@H]([C@@H](CC(=O)N1CCC[C@H]1[C@H](OC)[C@@H](C)C(=O)N[C@H](C)[C@@H](O)c1ccccc1)OC)N(C)C(=O)[C@@H](NC(=O)[C@H](C(C)C)N(C)C(=O)OCC(C)(C)SSc1nc2c([N+](=O)[O-])cccc2[nH]1)C(C)C (X6-[NMeV]V[Dil][Dolaproine]-X2)
HAS CR (HSA Conjugation Ratio) [1]: 0.65
AntP % P (penetratin (AntP) peptide % product) [2]: 26%

CC[C@H](C)[C@@H]([C@@H](CC(=O)N1CCC[C@H]1[C@H](OC)[C@@H](C)C(=O)N[C@H](C)[C@@H](O)c1ccccc1)OC)N(C)C(=O)[C@@H](NC(=O)[C@H](C(C)C)N(C)C(=O)OCC(C)(C)SSc1nc2ccccc2[nH]1)C(C)C (X7-[NMeV]V[Dil][Dolaproine]-X2)
HAS CR (HSA Conjugation Ratio) [1]: 0.52
AntP % P (penetratin (AntP) peptide % product) [2]: 18%

CC[C@H](C)[C@@H]([C@@H](CC(=O)N1CCC[C@H]1[C@H](OC)[C@@H](C)C(=O)N[C@H](C)[C@@H](O)c1ccccc1)OC)N(C)C(=O)[C@@H](NC(=O)[C@H](C(C)C)N(C)C(=O)OCC(C)(C)SSc1nc2nccnc2[nH]1)C(C)C (X8-[NMeV]V[Dil][Dolaproine]-X2)
HAS CR (HSA Conjugation Ratio) [1]: 0.63
AntP % P (penetratin (AntP) peptide % product) [2]: 36%

CC[C@H](C)[C@@H]([C@@H](CC(=O)N1CCC[C@H]1[C@H](OC)[C@@H](C)C(=O)N[C@H](C)[C@@H](O)c1ccccc1)OC)N(C)C(=O)[C@@H](NC(=O)[C@H](C(C)C)N(C)C(=O)OCC(C)(C)SSc1nnn[nH]1)C(C)C (X9-[NMeV]V[Dil][Dolaproine]-X2)
HAS CR (HSA Conjugation Ratio) [1]: 0.09
AntP % P (penetratin (AntP) peptide % product) [2]: 1.9%

CC[C@H](C)[C@@H]([C@@H](CC(=O)N1CCC[C@H]1[C@H](OC)[C@@H](C)C(=O)N[C@H](C)[C@@H](O)c1ccccc1)OC)N(C)C(=O)[C@@H](NC(=O)[C@H](C(C)C)N(C)C(=O)OCC(C)(C)SSc1nc2ncncc2[nH]1)C(C)C (X10-[NMeV]V[Dil][Dolaproine]-X2)
HAS CR (HSA Conjugation Ratio) [1]: 0.6
AntP % P (penetratin (AntP) peptide % product) [2]: 34%

CC[C@H](C)[C@@H]([C@@H](CC(=O)N1CCC[C@H]1[C@H](OC)[C@@H](C)C(=O)N[C@H](C)[C@@H](O)c1ccccc1)OC)N(C)C(=O)[C@@H](NC(=O)[C@H](C(C)C)N(C)C(=O)OCC(C)(C)SSc1nc2ccc(C(=O)O)cc2[nH]1)C(C)C (X11-[NMeV]V[Dil][Dolaproine]-X2)
HAS CR (HSA Conjugation Ratio) [1]: 0.64
AntP % P (penetratin (AntP) peptide % product) [2]: 20%

C=C1C[C@H]2C=Nc3cc(OCCCCCOc4cc5c(cc4OC)C(=O)N4CC(=C)C[C@H]4C(O)N5C(=O)OCC4(SSc5ccc([N+](=O)[O-])cn5)CCC4)c(OC)cc3C(=O)N2C1 (stereo partly drawn) [Compound 11]
Percentage of all products ([3]; 30 μM cysteine, 1 h): 21.2%
Percentage of all products ([3]; 30 μM cysteine, 4 h): 15.5%
Percentage of all products ([3]; 30 μM cysteine, 24 h): 4.8%
Percentage of all products ([3]; 200 μM cysteine, 1 h): 6.5%
Percentage of all products ([3]; 200 μM cysteine, 4 h): 3.6%
Percentage of all products ([3]; 200 μM cysteine, 24 h): 1.5%
Percentage of all products ([3]; 4 mM GSH, 1 h): 9.1%
Percentage of all products ([3]; 4 mM GSH, 4 h): 4.5%
Percentage of all products ([3]; 4 mM GSH, 24 h): 0.7%

C=C1C[C@H]2C=Nc3cc(OCCCCCOc4cc5c(cc4OC)C(=O)N4CC(=C)C[C@H]4C(O)N5C(=O)OCC4(SSC[C@H](N)C(=O)O)CCC4)c(OC)cc3C(=O)N2C1 (stereo partly drawn) [Compound 12a]
Percentage of all products ([3]; 30 μM cysteine, 1 h): 73.5%
Percentage of all products ([3]; 30 μM cysteine, 4 h): 74.8%
Percentage of all products ([3]; 30 μM cysteine, 24 h): 66.7%
Percentage of all products ([3]; 200 μM cysteine, 1 h): 21.5%
Percentage of all products ([3]; 200 μM cysteine, 4 h): 11.6%
Percentage of all products ([3]; 200 μM cysteine, 24 h): 0.8%

C=C1C[C@H]2C=Nc3cc(OCCCCCOc4cc5c(cc4OC)C(=O)N4CC(=C)C[C@H]4C(O)N5C(=O)OCC4(SSC[C@H](NC(=O)CC[C@H](N)C(=O)O)C(=O)NCC(=O)O)CCC4)c(OC)cc3C(=O)N2C1 (stereo partly drawn) [Compound 12b]
Percentage of all products ([3]; 4 mM GSH, 1 h): 1.6%
Percentage of all products ([3]; 4 mM GSH, 4 h): 0.2%
Percentage of all products ([3]; 4 mM GSH, 24 h): 0%

C=C1C[C@H]2C=Nc3cc(OCCCCCOc4cc5c(cc4OC)C(=O)N4CC(=C)C[C@H]4C(O)N5C(=O)OCC4(S)CCC4)c(OC)cc3C(=O)N2C1 (stereo partly drawn) [Compound 13]
Percentage of all products ([3]; 30 μM cysteine, 1 h): 1.3%
Percentage of all products ([3]; 30 μM cysteine, 4 h): 1.1%
Percentage of all products ([3]; 30 μM cysteine, 24 h): 0.1%
Percentage of all products ([3]; 200 μM cysteine, 1 h): 3.2%
Percentage of all products ([3]; 200 μM cysteine, 4 h): 1.6%
Percentage of all products ([3]; 200 μM cysteine, 24 h): 0%
Percentage of all products ([3]; 4 mM GSH, 1 h): 2.3%
Percentage of all products ([3]; 4 mM GSH, 4 h): 0%
Percentage of all products ([3]; 4 mM GSH, 24 h): 0%
Immolation of thiol intermediate ([3]; incubation with cysteine or glutathione): efficient immolation
